“Also recorded” adds a separate entry of the source.
Columns and labels:
[1] = test system: glioma cells; assay: cell cycle: total DNA content by flow cytometry (propidium iodide); format: cell-based, human; details: 0.5 mM (FIG. 4D)
Method: To test whether inhibition of cystine uptake affects a specific stage of the cell cycle, changes in total DNA content were measured using flow cytometry following treatment with 0.5 mM (S)-4-CPG and 0.5 mM sulfasalazine. Cells were fixed with para-formaldehyde and stained with the nuclear marker propidium iodide after incubation with drugs.

[2] = test system: cultured glioma cells; assay: glutathione levels in cultured glioma cells (monochlorobimane assay); format: cell-based, human
Method: The control group and treatment group animals were those described in FIG. 7A above. For these experiments, four mice (two control and two treatment) were sacrificed at 44 days after tumor induction, and brains were rapidly frozen and cryosectioned to […], thawed on ice, and then incubated with 100 μM monochlorobimane for 10 min. Fluorescence intensities were examined using a quantitative fluorescence imaging system comparing side-by-side slices from control group and treatment group animals. In these experiments, 10 slices were examined per animal. […] After treatment with 8 mg sulfasalazine 2 times per day, glutathione levels decreased approximately 30% (from 100+/−5.6 to 71.7+/−7.5 fluorescence units; p 0.01; t test) in tumors as compared with control animals (receiving saline alone). In parallel studies, the same assay was used on cultured glioma cells to validate these readouts. A 30% decrease in glutathione levels correlates with the glutathione depletion achieved with 70 μM sulfasalazine administered for 24 h to cultured cells; the maximal decrease achieved with 250 μM sulfasalazine in cultured U87-MG cells was 68% (data not shown).

[3] = test system: caspase-3; assay: activated caspase-3 by Western blot analysis; format: cell-based, human; details: 0.5 mM; D-54MG cells (FIG. 5C)
Method: Because an accumulation of ROS can lead to apoptotic cell death, the ability of system Xc inhibitors to induce apoptosis in glioma cells was examined. […] Often apoptosis is dependent on caspase activities, so it was determined whether the system Xc inhibitors induce activated caspase-3, which is the convergent enzyme in the caspase-dependent signaling cascade. […] With 1 mM sulfasalazine, 90% of cells died over the 5 d incubation (FIG. 5E).

[4] = test system: glioma xenograft tumors; assay: tumor size by hematoxylin-eosin staining of brain sections; format: in vivo, mice; details: 8 mg in 1 ml saline twice per day; 30 days after tumor induction (FIGS. 7C, 7D)
Method: To validate that these experiments represent, at least qualitatively, changes in tumor size, two animals each from the control and treatment groups were sacrificed at 30 days after tumor induction. Histological sections were obtained and traditional hematoxylin-eosin (H&E) staining were performed. FIGS. 7C and 7D show the results for the control group (saline treatment only) and the treatment group (8 mg sulfasalazine in 1 ml saline, twice per day).

[5] = test system: glioma cell lines (D-54MG, U-87MG, U-251MG and STTG1) and a primary glioma culture (GBM62); assay: growth curves of glioma cells over 5 days; format: cell-based, human; details: 5 days; 0.1 and 0.25 mM (S)-4-CPG, 0.25 and 0.5 mM sulfasalazine; all glioma cell lines and GBM62 (FIGS. 3A, 3B)
Method: To examine whether the depletion of glutathione via inhibition of cystine uptake by system Xc affects the growth of glioma cells, growth curves for 4 glioma cell lines (D-54MG, U-87MG, U-251MG and STTG1) and a primary glioma culture (GBM62) were established.
In the presence of 0.25 mM (S)-4-CPG, growth of D-54MG cells indeed recovered by the addition of fourfold excess of cystine (FIG. 3E), but not with glutamate (FIG. 3D), the second substrate for system Xc.

[6] = test system: cortical astrocytes; assay: 35S-labeled cystine uptake in cortical astrocytes; format: cell-based; parameters: dose or concentration left out as unconfirmed; details: compared with D-54MG glioma cells (FIG. 2B)
From the text: System Xc is a glutamate-cystine exchanger and can therefore be inhibited if the outward directed gradient for glutamate is eliminated by exposure to high concentrations of extracellular glutamate. The principal hypothesis in this study is that system Xc serves as a pipeline for cellular cystine uptake, with glutamate release being an obligatory by-product. Cystine uptake is the rate-limiting step for the synthesis of GSH, which is the main intracellular antioxidant that protects cells from oxidative stress and resulting reactive oxygen species (ROS) (Jefferies et al., 2003).

[7] = test system: U87-MG; assay: intracranial U87-MG luciferase xenograft, bioluminescence imaging; format: in vivo, CB-17 nude mice; details: 8 mg twice daily for 3 weeks, then 1 dose per day (FIG. 7B)
Method: These U87-MG cells were similarly implanted intracranially as described above, but this time into CB-17 nude mice. After 7 days, animals were randomized into […]. The control group received an intraperitoneal injection of 1 ml dose of saline twice daily. The two test groups received an 8 mg dose of sulfasalazine (in 1 ml saline) twice daily for 3 weeks, followed by 1 dose per day of 8 mg sulfasalazine thereafter. Animals were imaged for tumor size, typically once per week, using a bioluminescence imaging system (IVIS system; Xenogen). Light emission from the tumor regions (in relative photons/second) were quantified using Living Image, version 2.20.1, software provided by Xenogen and plotted as a function of time.

[8] = test system: D54-MG glioma cells; assay: histological markers of cell death and proliferation in tumor sections; format: in vivo, CB-17 scid mice
From the text: To further examine effects of sulfasalazine in vivo at the cellular level, the tumor sections were examined with commonly used histological markers for cell death, including ApopTag/methyl green (FIGS. 8A and 8B) and terminal deoxynucleotidyl transferase-mediated biotinylated UTP nick end labeling (TUNEL) (FIGS. 8C and 8D), and proliferation (Ki-67) (FIGS. 8E and 8F). Multiple fields from several serial sections from two control group and two treatment group animals (see description above regarding FIG. 7A) were examined. […] Indeed, necrosis is a hallmark of grade IV gliomas and a necessary feature for their histopathological grading as such. At a higher resolution (40×), significant cell death was observed as evident from TUNEL (FIG. 8C) and caspase-3 staining (data not shown). In these figures, TUNEL staining is indicated by a lighter green color against a background of DAPI staining.

[9] = test system: glioma cells; assay: total intracellular glutathione content in glioma cells; format: cell-based, human
Method: To determine if limiting cystine uptake via system Xc reduces the total intracellular glutathione content (GSH and glutathione disulfide), intracellular glutathione concentrations were determined in the presence and absence of sulfasalazine.

[10] = test system: D-54MG glioma cells; assay: BrdU incorporation, immunocytochemical studies; format: cell-based, human; details: DAPI co-staining (FIG. 4B)
Method: BrdU incorporation was measured using an ELISA-based assay. D-54MG cells were grown in the presence or absence of inhibitors for 24 hours and pulsed for 2 hours with BrdU. The cells were cultured for an additional 48 hours and the amount of incorporated BrdU was measured using alkaline phosphatase conjugated to anti-BrdU antibodies. […] The inhibition of DNA synthesis was also seen in immunocytochemical studies.

O=C(O)c1cc(/N=N/c2ccc(S(=O)(=O)Nc3ccccn3)cc2)ccc1O [sulfasalazine]
cell cycle distribution (total DNA content) [1]: a reduction of cells in G2 phase and an increase in cells in S phase
decrease in glutathione levels in cultured cells ([2]; 70 μM for 24 h): 30%
maximal decrease in glutathione levels ([2]; 250 μM, cultured U87-MG cells, data not shown): 68%
activated form of caspase-3 [3]: increased the activated form of caspase-3
tumor size versus control group, H&E staining [4]: significantly smaller
growth of glioma cells [5]: dose-dependent growth inhibitions
inhibition of cystine uptake in cortical astrocytes [6]: to a significantly lesser degree; also recorded: only a limited inhibition
tumor growth by bioluminescence imaging [7]: reduce tumor growth significantly
tumor necrosis (ApopTag) ([8]; sulfasalazine-treated animals of FIG. 7A (FIG. 8B)): almost no evidence for necrosis
Ki-67 index ([8]; sulfasalazine-treated tumor sections, similar to control, no significant difference): approximately 15
TUNEL labeling in tumor sections ([8]; sulfasalazine-treated versus control (FIG. 8D), not statistically significant): reduced TUNEL
caspase-3 labeling in tumor sections ([8]; sulfasalazine-treated versus control, data not shown): reduced
intracellular glutathione concentration ([9]; 0.25 mM, glioma cells D-54MG, U-87MG, U-251MG and primary glioma culture GBM64 (FIG. 2F)): depleted intracellular glutathione concentration
intracellular glutathione concentration ([9]; D-54MG glioma cells, sulfasalazine 50-500 μM, time and dose-dependent, after 24 h (FIG. 2D)): almost complete glutathione depletion
incorporation of BrdU, immunocytochemistry [10]: virtually abolished incorporation of BrdU
